Measurements as given in DBAASP.
Converted amounts (≈) assume the structure as drawn. “And” between values parts separate entries of the source, which are not always exact repeats. Equal entries are not always repeated.

Assays:
Assay in all cases: ≥ marks a high value that may be exact or a test limit, other limits are often not marked, values filed in µg/mL are converted to µM
Candida albicans = system: Candida albicans
[1] = system: Pseudomonas aeruginosa ATCC 27853
[2] = system: Staphylococcus aureus ATCC 49476
Staphylococcus aureus MR = system: Staphylococcus aureus MR
[3] = system: Aspergillus flavus KCTC 6905
[4] = system: Aspergillus fumigatus KCTC 6145
[5] = system: Candida krusei CCARM 14017
[6] = system: Candida parapsilosis CCARM 14016
[7] = system: Candida tropicalis KCTC 7221
[8] = system: Fusarium verticillioides KCTC 6149
[9] = system: Trichosporon beigelii KCTC 7707
[10] = system: Acinetobacter baumannii ATCC 7978
[11] = system: Enterococcus faecium E007
[12] = system: Klebsiella pneumoniae WGLW2
[13] = system: Staphylococcus aureus ATCC 29231
[14] = system: Staphylococcus aureus MW2
[15] = system: Candida albicans ATCC 10231
[16] = system: Cryptococcus neoformans ATCC 32264
[17] = system: Escherichia coli ATCC 25922
Escherichia coli = system: Escherichia coli
[18] = system: Salmonella enterica subsp. enterica serovar Enteritidis
Salmonella sp. = system: Salmonella sp.
[19] = system: Staphylococcus aureus ATCC 29213
[20] = system: Staphylococcus aureus ATCC 43300
Yersinia enterocolitica = system: Yersinia enterocolitica
[21] = system: Aeromonas veronii ATCC 35624
Aeromonas veronii CL0901 = system: Aeromonas veronii CL0901
[22] = system: Aeromonas veronii X-1-06909
[23] = system: Candida albicans CMCC 98001
[24] = system: Escherichia coli CVCC 1515
[25] = system: Escherichia coli CVCC 195
[26] = system: Escherichia coli CVCC 25922
[27] = system: Escherichia coli CVCC O157
[28] = system: Pseudomonas aeruginosa CICC 21630
[29] = system: Salmonella enterica subsp. enterica serovar Enteritidis CVCC 3377
[30] = system: Salmonella enterica subsp. enterica serovar Pullorum CVCC 1789
[31] = system: Salmonella enterica subsp. enterica serovar Pullorum CVCC 1809
[32] = system: Salmonella enterica subsp. enterica serovar Pullorum CVCC 533
[33] = system: Salmonella enterica subsp. enterica serovar Typhimurium ATCC 14028
[34] = system: Staphylococcus aureus ATCC 25923
[35] = system: Staphylococcus aureus ATCC 546
[36] = system: Staphylococcus hyicus NCTC 10350
Staphylococcus hyicus = system: Staphylococcus hyicus

Structure (SMILES): CC[C@H](C)[C@H](NC(=O)[C@H](C)NC(=O)[C@H](CCCCN)NC(=O)CNC(=O)[C@H](C)NC(=O)[C@H](CO)NC(=O)[C@H](Cc1ccccc1)NC(=O)[C@H](CC(C)C)NC(=O)CNC(=O)CNC(=O)[C@@H](NC(=O)[C@@H](NC(=O)[C@H](Cc1cnc[nH]1)NC(=O)[C@H](Cc1cnc[nH]1)NC(=O)[C@@H](NC(=O)[C@@H](N)Cc1ccccc1)[C@@H](C)CC)[C@@H](C)CC)[C@@H](C)CC)C(=O)N[C@@H](Cc1cnc[nH]1)C(=O)N[C@@H](CCCN=C(N)N)C(=O)N[C@@H](Cc1cnc[nH]1)C(=O)N[C@@H](Cc1cnc[nH]1)C(=O)N[C@@H](CCCN=C(N)N)C(=O)N[C@@H](CCCN=C(N)N)C(=O)N[C@@H](CCCN=C(N)N)C(=O)N[C@@H](CCCN=C(N)N)C(=O)N[C@@H](CCCN=C(N)N)C(=O)O [FIHHIIGGLFSAGKAIHRHHRRRRR]
- MIC (Candida albicans): 42.3 µM (≈ 128 µg/mL)
- MIC [1]: 84.5 µM (≈ 256 µg/mL)
- MIC [2]: ≥ 42.3 µM
- MIC (Staphylococcus aureus MR): ≥ 169 µM

Structure (SMILES): CC[C@H](C)[C@H](NC(=O)CNC(=O)[C@H](CCC(N)=O)NC(=O)[C@H](C)NC(=O)[C@@H](NC(=O)[C@H](CCCCN)NC(=O)[C@H](CCCCN)NC(=O)[C@H](CC(C)C)NC(=O)[C@H](C)NC(=O)[C@H](CC(N)=O)NC(=O)[C@H](C)NC(=O)CN)C(C)C)C(=O)N[C@@H](Cc1cnc[nH]1)C(=O)N[C@@H](CCC(=O)O)C(=O)N[C@@H](C)C(=O)N[C@H](C(=O)N[C@@H](CCCCN)C(=O)N[C@@H](CC(C)C)C(=O)N[C@H](C(=O)N[C@@H](CC(N)=O)C(=O)N[C@@H](CC(N)=O)C(=O)N[C@@H](Cc1cnc[nH]1)C(=O)N[C@H](C(=O)N[C@@H](CCC(N)=O)C(N)=O)C(C)C)[C@@H](C)CC)[C@@H](C)CC [GANALKKVAQGIHEAIKLINNHVQ]
- MIC [3]: ≥ 32 µM and 12 µM
- MIC [4]: 24 µM and 16 µM
- MIC [5]: 6 µM and 4 µM
- MIC [6]: ≥ 64 µM
- MIC [7]: 2 µM and 1.5 µM
- MIC [8]: 24 µM and 16 µM
- MIC [9]: 2 µM (≈ 5.13 µg/mL)

Structure (SMILES): CC[C@H](C)[C@H](NC(=O)[C@H](CCCCN)NC(=O)[C@H](CCCCN)NC(=O)[C@H](CC(C)C)NC(=O)[C@@H](NC(=O)[C@H](CCCCN)NC(=O)[C@H](Cc1c[nH]c2ccccc12)NC(=O)[C@@H](N)CC(C)C)[C@@H](C)CC)C(=O)N[C@@H](Cc1c[nH]c2ccccc12)C(=O)N[C@@H](CCCN=C(N)N)C(=O)N[C@H](C(=O)N[C@@H](CC(C)C)C(=O)N[C@@H](CCCCN)C(=O)N[C@@H](CC(N)=O)C(=O)N[C@@H](Cc1c[nH]c2ccccc12)C(=O)N[C@@H](CCCN=C(N)N)C(=O)O)C(C)C [LWKILKKIWRVLKNWR]
- MIC [10]: ≥ 58.7 µM
- MIC [11]: ≥ 58.7 µM
- MIC [12]: 29.4 µM (≈ 64 µg/mL)
- MIC [13]: 14.7 µM (≈ 32 µg/mL)
- MIC [14]: 14.7 µM (≈ 32 µg/mL)

Structure (SMILES): CC[C@H](C)[C@H](NC(=O)[C@H](CCC(N)=O)NC(=O)[C@@H](N)CCCN=C(N)N)C(=O)N[C@@H](CCCN=C(N)N)C(=O)N[C@@H](CCCN=C(N)N)C(=O)N[C@@H](Cc1c[nH]c2ccccc12)C(=O)N[C@@H](Cc1c[nH]c2ccccc12)C(=O)N[C@@H](CCC(N)=O)C(=O)N[C@@H](Cc1c[nH]c2ccccc12)C(N)=O [RQIRRWWQW]
- MIC [15]: 50 µM (≈ 70.7 µg/mL)
- MIC [16]: 25 µM (≈ 35.3 µg/mL)
- MIC [17]: > 50 µM
- MIC (Escherichia coli): 44.7 µM (≈ 63.2 µg/mL)
- MIC [1]: > 50 µM
- MIC [18]: ≥ 50 µM
- MIC (Salmonella sp.): 30 µM (≈ 42.4 µg/mL)
- MIC [19]: > 50 µM
- MIC [20]: > 50 µM
- MIC (Yersinia enterocolitica): ≥ 50 µM

Structure (SMILES): CC(C)[C@H](N)C(=O)N[C@@H](Cc1ccccc1)C(=O)N[C@@H](C)C(=O)N[C@@H](Cc1c[nH]c2ccccc12)C(=O)N[C@@H](CC(N)=O)C(=O)N[C@H](C(=O)N[C@H]1CSSC[C@@H](C(=O)N[C@@H](Cc2cnc[nH]2)C(=O)N[C@@H](CCCN=C(N)N)C(=O)N[C@@H](CCCN=C(N)N)C(=O)N[C@@H](C)C(=O)N[C@@H](CC(N)=O)C(N)=O)NC(=O)[C@H](C(C)C)NC(=O)[C@H](CCCN=C(N)N)NC(=O)[C@H](C(C)C)NC(=O)[C@H](C(C)C)NC(=O)[C@H](CC(N)=O)NC(=O)[C@H](CCCN=C(N)N)NC(=O)[C@H](Cc2ccc(O)cc2)NC(=O)[C@H](C(C)C)NC1=O)C(C)C [VFAWNVCVYRNVVRVCHRRAN]
- MIC [21]: 6.25 µM (≈ 16 µg/mL)
- MIC (Aeromonas veronii CL0901): 12.5 µM (≈ 32 µg/mL)
- MIC [22]: 12.5 µM (≈ 32 µg/mL)
- MIC [23]: ≥ 50 µM
- MIC [24]: 1.56 µM (≈ 4 µg/mL)
- MIC [25]: 3.12 µM (≈ 7.99 µg/mL)
- MIC [26]: 3.12 µM (≈ 7.99 µg/mL)
- MIC [27]: 3.12 µM (≈ 7.99 µg/mL)
- MIC [28]: 12.5 µM (≈ 32 µg/mL)
- MIC [29]: 0.781 µM (≈ 2 µg/mL)
- MIC [30]: 6.25 µM (≈ 16 µg/mL)
- MIC [31]: 3.12 µM (≈ 7.99 µg/mL)
- MIC [32]: 6.25 µM (≈ 16 µg/mL)
- MIC [33]: 6.25 µM (≈ 16 µg/mL)
- MIC [34]: 12.5 µM (≈ 32 µg/mL)
- MIC [20]: 12.5 µM (≈ 32 µg/mL)
- MIC [35]: 6.25 µM (≈ 16 µg/mL)
- MIC [36]: 25 µM (≈ 63.9 µg/mL)
- MIC (Staphylococcus hyicus): 12.5 µM (≈ 32 µg/mL)
